# Laboratory results from US9951372B2, “Compounds and methods for assaying redox state of metabolically active cells and methods for measuring NAD(P)/NAD(P)H” (PROMEGA CORPORATION, priority 2011, dated 2018).
# Where two headings read alike, the source gives them in different places.
# Experiments:
# rat diaphorase = biological target: T1, rat diaphorase (Rattus norvegicus, UniProt P05982); type: biochemical; details: for Fluorescence time course, Rat: 10 uM NADH
# T1 construct: purchased Sigma
# T1 sequence (P05982 2-274 limits assumed): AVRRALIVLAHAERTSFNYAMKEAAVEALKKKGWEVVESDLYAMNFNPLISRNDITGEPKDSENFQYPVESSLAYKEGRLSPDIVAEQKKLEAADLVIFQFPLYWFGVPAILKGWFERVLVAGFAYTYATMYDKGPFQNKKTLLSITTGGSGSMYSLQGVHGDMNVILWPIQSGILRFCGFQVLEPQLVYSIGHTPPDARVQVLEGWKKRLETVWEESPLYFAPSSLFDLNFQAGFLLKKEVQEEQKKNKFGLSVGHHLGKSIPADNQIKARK
# Clostridium diaphorase = assay: Fluorescent NADH detection assay, Clostridium diaphorase; type: biochemical; details: for FLUs: 1 u/ml Clostridium diaphorase; for Fluorescence time course, Clostridium: 10 uM NADH
# Method: Each fluorescent substrate (PBI-4412, 4413, 4440, and 4441) was incubated at 920 μM with 0 μM or 10 μM NADH (Sigma) or a titration of NADH (Table 8) and 1 u/ml rat diaphorase (Sigma) or 1 u/ml Clostridium diaphorase (Sigma) in a volume of 100 μl in 50 mM Tris pH 7.5. Single reactions were prepared in the wells of a 96-well black plate at room temperature. Fluorescence was monitored over the course of two hours at excitation and emission wavelengths of 485 and 527, respectively, using a fluorescence plate reader. […] Table 7 and FIGS. 24a-b show the reaction time course with each substrate with 10 uM NADH. Table 8 and FIG. 25 show the NADH titration at 60 minutes with PBI-4440 and 4412 with rat diaphorase.
# HEK293 cells = assay: Measuring metabolically active cells with quinone fluorescein derivatives; type: cell-based; details: HEK293 cell dilutions; 60 minutes; 480ex/530em
# Method: i. Two-fold serial dilutions of HEK293 cells were prepared in full DMEM media, and 100 μl per well were transferred into wells of 96-well plates. Compounds PBI 4440 and 4412 were diluted in full DMEM media to make 20 μM and 10 μM stocks, respectively. 100 μl of the prepared compound stocks were added to the cells, and the cells were incubated for 60 minutes in a 37° C., 5% CO2 incubator. Following incubation, the cells were removed from incubator, and fluorescence measured with Tecan Infinite 500 at 480ex/Em530em wavelength.
# HeLa cells = assay: Fluorescent imaging of live cells; type: cell-based; details: 10 μM substrate
# Method: HeLa cells were plated at 40,000 cell/well into wells of an 8-well chambered coverslip and incubated at 37° C.+5% CO2. The media (DMEM) was replaced with warm complete media (with 10% FBS) containing 10 μM PBI-4412, 4413, 4440 or 4441. Cells were then transferred to a confocal microscope for imaging using 10% λ488 nm laser power (4412, 4413, and 4441) or 5% laser power (4440). All images (FIGS. 6a-d) are at 30× magnification.
# NAD biosynthesis pathway = assay: Monitoring inhibition of NAD biosynthesis; type: cell-based; details: 48 hours of treatment; several cell lines; detection with PBI 4312
# Method: Cells were plated at 7.5×10^3 cells/12.5 ul into wells of a 384-well plates. The cells were plated in full media containing 10% FBS (PC3 and A549 cells in F12K; Hela, MD-AMB and HET 116 cells in DMEM without pyruvate; HepG2 cells in E-MEM and Jurkat cells in RPMI). […] The cells were placed in a CO2 dependent incubator. […] Promega Cat. No V8920) was added to each well. The reaction was incubated for 30 minutes at room temperature, and luminescence measured using a Tecan plate luminometer. The data are shown as % inhibition compared to control (no inhibitor) and are plotted using the sigmoidal dose-response, variable slope model supplied with SigmaPlot 11.0 software. A signal-to-background ratio (S/B) calculated between control cells and cells treated with the highest FK866 concentration.
smiles,measurement,setting,value
"CC1=C(C)C(=O)C(C(C)(C)CC(=O)N(C)CCN(C)C(=O)Oc2ccc3c(c2)Oc2cc(O)ccc2C32OC(=O)c3ccccc32)=C(C)C1=O (stereo not drawn) [PBI 4440, Mono-quinone trimethyllock diamine fluorescein]",FLUs,"rat diaphorase; 0 μM NADH, 60 min, 1 u/ml rat diaphorase",2922 FLUs
same,FLUs,"rat diaphorase; 10 μM NADH, 60 min, 1 u/ml rat diaphorase, substrate 920 μM",180909 FLUs
same,"Fluorescence time course, Rat",rat diaphorase; 2 min,6473 FLUs
same,"Fluorescence time course, Rat",rat diaphorase; 4 min,18626 FLUs
same,"Fluorescence time course, Rat",rat diaphorase; 5 min,28997 FLUs
same,"Fluorescence time course, Rat",rat diaphorase; 10 min,73216 FLUs
same,"Fluorescence time course, Rat",rat diaphorase; 20 min,133999 FLUs
same,"Fluorescence time course, Rat",rat diaphorase; 30 min,161355 FLUs
same,"Fluorescence time course, Rat",rat diaphorase; 40 min,173345 FLUs
same,"Fluorescence time course, Rat",rat diaphorase; 50 min,178374 FLUs
same,"Fluorescence time course, Rat",rat diaphorase; 60 min,180909 FLUs
same,"Fluorescence time course, Rat",rat diaphorase; 70 min,182618 FLUs
same,"Fluorescence time course, Rat",rat diaphorase; 80 min,182416 FLUs
same,"Fluorescence time course, Rat",rat diaphorase; 90 min,182263 FLUs
same,"Fluorescence time course, Rat",rat diaphorase; 100 min,181996 FLUs
same,"Fluorescence time course, Rat",rat diaphorase; 110 min,182253 FLUs
same,"Fluorescence time course, Rat",rat diaphorase; 120 min,182132 FLUs
same,FLUs,"rat diaphorase; NADH 0 μM, 60 minutes, rat diaphorase",2922 FLUs
same,FLUs,"rat diaphorase; NADH 1.25 μM, 60 minutes, rat diaphorase",24788 FLUs
same,FLUs,"rat diaphorase; NADH 2.5 μM, 60 minutes, rat diaphorase",50387 FLUs
same,FLUs,"rat diaphorase; NADH 5 μM, 60 minutes, rat diaphorase",99331 FLUs
same,FLUs,"rat diaphorase; NADH 10 μM, 60 minutes, rat diaphorase",180909 FLUs
same,FLUs,"rat diaphorase; NADH 20 μM, 60 minutes, rat diaphorase",309004 FLUs
same,FLUs,"rat diaphorase; NADH 40 μM, 60 minutes, rat diaphorase",304293 FLUs
same,FLUs,"rat diaphorase; NADH 80 μM, 60 minutes, rat diaphorase",305861 FLUs
same,FLUs,"Clostridium diaphorase; 0 μM NADH, 60 min",3050 FLUs
same,FLUs,"Clostridium diaphorase; 10 μM NADH, 60 min, substrate 920 μM",43362 FLUs
same,"Fluorescence time course, Clostridium",Clostridium diaphorase; 2 min,3611 FLUs
same,"Fluorescence time course, Clostridium",Clostridium diaphorase; 4 min,7197 FLUs
same,"Fluorescence time course, Clostridium",Clostridium diaphorase; 5 min,10142 FLUs
same,"Fluorescence time course, Clostridium",Clostridium diaphorase; 10 min,20624 FLUs
same,"Fluorescence time course, Clostridium",Clostridium diaphorase; 20 min,33781 FLUs
same,"Fluorescence time course, Clostridium",Clostridium diaphorase; 30 min,39807 FLUs
same,"Fluorescence time course, Clostridium",Clostridium diaphorase; 40 min,42268 FLUs
same,"Fluorescence time course, Clostridium",Clostridium diaphorase; 50 min,43000 FLUs
same,"Fluorescence time course, Clostridium",Clostridium diaphorase; 60 min,43362 FLUs
same,"Fluorescence time course, Clostridium",Clostridium diaphorase; 70 min,43750 FLUs
same,"Fluorescence time course, Clostridium",Clostridium diaphorase; 80 min,43425 FLUs
same,"Fluorescence time course, Clostridium",Clostridium diaphorase; 90 min,43468 FLUs
same,"Fluorescence time course, Clostridium",Clostridium diaphorase; 100 min,43296 FLUs
same,"Fluorescence time course, Clostridium",Clostridium diaphorase; 110 min,43005 FLUs
same,"Fluorescence time course, Clostridium",Clostridium diaphorase; 120 min,43150 FLUs
same,relationship of fluorescence to cell number,HEK293 cells,linear correlation between cell number and fluorescence
same,reduction of substrate in live cells (confocal images),HeLa cells,only reduced once inside cells
O=C(/C=C/c1cccnc1)NCCCCC1CCN(C(=O)c2ccccc2)CC1 [FK866],effect on cellular NAD levels,NAD biosynthesis pathway,decrease in NAD levels
